According to ChEMBL document CHEMBL1201862, “PubChem BioAssay data set” (2004):
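The compound was tested at five concentrations on cells cultured in 96-well plates, with a 48-hour exposure period. Abbreviation: GI50, concentration required for 50% inhibition of growth.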 The source made the active and inactive calls. Rule as the data show it: active = GI50 up to about 1.1 µM and inactive = higher.

What was measured:
Test in all cases: inhibition of tumour cell growth, NCI panel, 48 h
U-251 = tested on: U-251
HOP-62 = tested on: HOP-62
SF-268 = tested on: SF-268
SF-539 = tested on: SF-539
XF498 = tested on: XF498
DMS-114 = tested on: DMS-114
IGROV-1 = tested on: IGROV-1
LXFL 529 = tested on: LXFL 529
HL-60 = tested on: HL-60
Malme-3M = tested on: Malme-3M
K562 = tested on: K562
M14 = tested on: M14
M19-MEL = tested on: M19-MEL
OVCAR-8 = tested on: OVCAR-8
SNB-19 = tested on: SNB-19
SNB-78 = tested on: SNB-78
A498 = tested on: A498
HOP-18 = tested on: HOP-18
CCRF-CEM = tested on: CCRF-CEM
RPMI-8226 = tested on: RPMI-8226
SK-OV-3 = tested on: SK-OV-3
SF-295 = tested on: SF-295
SNB-75 = tested on: SNB-75
DLD-1 = tested on: DLD-1
SK-MEL-2 = tested on: SK-MEL-2
SK-MEL-5 = tested on: SK-MEL-5
HOP-92 = tested on: HOP-92
LOX IMVI = tested on: LOX IMVI
HT-29 = tested on: HT-29
SN12C = tested on: SN12C
SW-620 = tested on: SW-620
ACHN = tested on: ACHN
NCI-H23 = tested on: NCI-H23
NCI-H460 = tested on: NCI-H460
NCI-H226 = tested on: NCI-H226
HCT-15 = tested on: HCT-15
EKVX = tested on: EKVX
UO-31 = tested on: UO-31
COLO 205 = tested on: COLO 205
KM-20L2 = tested on: KM-20L2
TK-10 = tested on: TK-10
RXF 631 = tested on: RXF 631
CAKI-1 = tested on: CAKI-1
UACC-62 = tested on: UACC-62
OVCAR-3 = tested on: OVCAR-3
SK-MEL-28 = tested on: SK-MEL-28
MOLT-4 = tested on: MOLT-4
NCI-H522 = tested on: NCI-H522
UACC-257 = tested on: UACC-257
RXF 393 = tested on: RXF 393
HCT-116 = tested on: HCT-116
SR = tested on: SR
HCC 2998 = tested on: HCC 2998
A549 = tested on: A549
786-0 = tested on: 786-0
DMS-273 = tested on: DMS-273
OVCAR-4 = tested on: OVCAR-4
KM12 = tested on: KM12

Compound: CCOC(=O)C(=CNC(Cc1c[nH]c2ccccc12)C(=O)OC)C(=O)OCC (configuration not stated)
- GI50 (U-251): > 100 µM (inactive)
- GI50 (HOP-62): < 0.01 µM (active)
- GI50 (SF-268): > 100 µM (inactive)
- GI50 (SF-539): > 100 µM (inactive)
- GI50 (XF498): > 100 µM (inactive)
- GI50 (DMS-114): > 100 µM (inactive)
- GI50 (IGROV-1): > 100 µM (inactive)
- GI50 (LXFL 529): > 100 µM (inactive)
- GI50 (HL-60): > 100 µM (inactive)
- GI50 (Malme-3M): > 100 µM (inactive)
- GI50 (K562): > 100 µM (inactive)
- GI50 (M14): > 100 µM (inactive)
- GI50 (M19-MEL): > 100 µM (inactive)
- GI50 (OVCAR-8): > 100 µM (inactive)
- GI50 (SNB-19): > 100 µM (inactive)
- GI50 (SNB-78): > 100 µM (inactive)
- GI50 (A498): > 100 µM (inactive)
- GI50 (HOP-18): 92 µM (inactive)
- GI50 (CCRF-CEM): > 100 µM (inactive)
- GI50 (RPMI-8226): > 100 µM (inactive)
- GI50 (SK-OV-3): > 100 µM (inactive)
- GI50 (SF-295): > 100 µM (inactive)
- GI50 (SNB-75): > 100 µM (inactive)
- GI50 (DLD-1): > 100 µM (inactive)
- GI50 (SK-MEL-2): 63.8 µM (inactive)
- GI50 (SK-MEL-5): 86.3 µM (inactive)
- GI50 (HOP-92): 16.6 µM (inactive)
- GI50 (LOX IMVI): > 100 µM (inactive)
- GI50 (HT-29): > 100 µM (inactive)
- GI50 (SN12C): > 100 µM (inactive)
- GI50 (SW-620): > 100 µM (inactive)
- GI50 (ACHN): > 100 µM (inactive)
- GI50 (NCI-H23): > 100 µM (inactive)
- GI50 (NCI-H460): 44.7 µM (inactive)
- GI50 (NCI-H226): > 100 µM (inactive)
- GI50 (HCT-15): > 100 µM
- GI50 (EKVX): > 100 µM (inactive)
- GI50 (UO-31): 74.6 µM (inactive)
- GI50 (COLO 205): > 100 µM (inactive)
- GI50 (KM-20L2): > 100 µM (inactive)
- GI50 (TK-10): > 100 µM (inactive)
- GI50 (RXF 631): > 100 µM (inactive)
- GI50 (CAKI-1): > 100 µM (inactive)
- GI50 (UACC-62): 71.1 µM (inactive)
- GI50 (OVCAR-3): > 100 µM (inactive)
- GI50 (SK-MEL-28): > 100 µM (inactive)
- GI50 (MOLT-4): > 100 µM (inactive)
- GI50 (NCI-H522): > 100 µM (inactive)

Compound: COc1ccc(-c2cc(=O)c3cc(C)c(C)c(C(=O)O)c3o2)cc1
- GI50 (U-251): > 100 µM (inactive)
- GI50 (HOP-62): > 100 µM (inactive)
- GI50 (UACC-257): > 100 µM (inactive)
- GI50 (RXF 393): > 100 µM (inactive)
- GI50 (SF-539): > 100 µM (inactive)
- GI50 (XF498): > 100 µM (inactive)
- GI50 (DMS-114): 15.3 µM (inactive)
- GI50 (IGROV-1): > 100 µM (inactive)
- GI50 (HCT-116): > 100 µM (inactive)
- GI50 (SR): > 100 µM (inactive)
- GI50 (LXFL 529): > 100 µM (inactive)
- GI50 (HL-60): > 100 µM (inactive)
- GI50 (K562): > 100 µM (inactive)
- GI50 (M19-MEL): > 100 µM (inactive)
- GI50 (OVCAR-8): > 100 µM (inactive)
- GI50 (SNB-19): > 100 µM (inactive)
- GI50 (HCC 2998): > 100 µM (inactive)
- GI50 (SNB-78): > 100 µM (inactive)
- GI50 (A498): > 100 µM (inactive)
- GI50 (CCRF-CEM): > 100 µM (inactive)
- GI50 (RPMI-8226): > 100 µM (inactive)
- GI50 (SK-OV-3): > 100 µM (inactive)
- GI50 (SF-295): > 100 µM (inactive)
- GI50 (SNB-75): > 100 µM (inactive)
- GI50 (DLD-1): > 100 µM (inactive)
- GI50 (SK-MEL-2): > 100 µM (inactive)
- GI50 (A549): > 100 µM (inactive)
- GI50 (HOP-92): < 0.01 µM (active)
- GI50 (HT-29): > 100 µM (inactive)
- GI50 (786-0): > 100 µM (inactive)
- GI50 (SN12C): > 100 µM (inactive)
- GI50 (DMS-273): > 100 µM (inactive)
- GI50 (SW-620): > 100 µM (inactive)
- GI50 (ACHN): 17.9 µM (inactive)
- GI50 (NCI-H23): > 100 µM (inactive)
- GI50 (NCI-H460): > 100 µM (inactive)
- GI50 (HCT-15): > 100 µM
- GI50 (EKVX): > 100 µM (inactive)
- GI50 (OVCAR-4): > 100 µM (inactive)
- GI50 (UO-31): > 100 µM (inactive)
- GI50 (COLO 205): > 100 µM (inactive)
- GI50 (KM-20L2): > 100 µM (inactive)
- GI50 (RXF 631): > 100 µM (inactive)
- GI50 (CAKI-1): > 100 µM (inactive)
- GI50 (UACC-62): 13.6 µM (inactive)
- GI50 (OVCAR-3): > 100 µM (inactive)
- GI50 (SK-MEL-28): > 100 µM (inactive)
- GI50 (MOLT-4): > 100 µM (inactive)
- GI50 (KM12): > 100 µM (inactive)
